Reference: patent US20140206028A1, “Stable Electrically Active Neurons from Adult Tissue” (University of Central Florida Research Foundation, Inc., priority 2011, published 2014)

Columns and labels:
Type in all cases: cell-based
[1] = system: adult rat hippocampal neurons on MEAs; assay: MEA recording of spontaneous activity, adult hippocampal neurons; conditions: adult cultures
Protocol: Adult neurons were extracted, dissociated, cultured, and maintained. Briefly, the hippocampi of adult rats (Charles River, age 6-12 months) were dissected and homogenized into small tissue fragments in cold medium (˜4° C.) consisting of Hibernate-A, glutamax, and antibiotic-antimycotic. The tissue was digested for 30 minutes at 37° C. in calcium-free Hibernate-A (HA) containing 6 mg papain/12 ml (HA no calcium). Following digestion, the tissue was washed three times with cold HA media to remove any active enzyme. Next, the tissue was suspended in Dissociation Medium and broken apart into individual cells through mechanical dissociation with fire-polished Pasteur pipettes. The dissociated cells were suspended in Plating medium and then deposited onto DETA (N-1 [3-(trimethoxysilyl) propyl]-diethylenetriamine, United Chemical Technologies Inc., Bristol, Pa., T2910KG) coated glass cover slips. After 30-45 minutes, the cover slips were washed with warm HA by gently swirling the medium to remove tissue debris. Following this washing step, fresh Plating medium was applied and remained for the first 3 div. On 3 div the medium was removed and replaced by Maintenance Medium with 5 μM Roscovitine (Rosc, Sigma, R7772). All research was approved by the Institutional Animal Care and Use Committee at the University of Central Florida and conformed to NIH guidelines. After 4 div, the adult hippocampal neurons on the DETA cover slips were passaged to MEAs. Briefly, neurons were dislodged from the DETA with trypsin (0.05% trypsin/EDTA in HBSS, Gibco, 25200). Trypsin inhibitor (trypsin inhibitor, soybean, Gibco, 17075-029) in Dissociation medium at 0.5 mg per ml deactivated the trypsin. The dislodged neurons were collected and spun at 500×g for 5 minutes. The supernatant of deactivated trypsin in HBSS was discarded, and the neuronal cell pellet was suspended in 1 ml Plating medium. Immunocytochemistry and Laser Scanning Confocal Microscopy
(§1) The MEA chips (Axion Biosystems) provided 64 platinum-black coated gold-electrodes with a diameter of 30 μm, organized in an 8 by 8 array with 200 μm pitch. Clean MEAs were sterilized with 70% alcohol and then incubated with 1 ml poly-L-lysine (100 μg/ml) for 30 minutes. An area just large enough to cover all electrodes was additionally coated with 3 μl laminin (2 μg/ml) over night. Embryonic rat hippocampal neurons were plated directly on MEAs at a density of 500 cells/mm2. Adult rat hippocampal neurons were first cultured on DETA coated cover slips for recovery. […] After 4 days on DETA cover slips, the adult neurons were passaged onto MEAs at a density of 500 cells/mm2. Every 2-3 days, half the medium was replaced with fresh Maintenance medium supplemented with 2 μM Rosc.
(§2) MEAs were incubated with their covers off to allow gas exchange but covered upon removal from the incubator to reduce contamination, media evaporation, and gas exchange while recordings were taken. The head stage of the recording system (Axion Biosystems) was pre-heated to 37° C. before MEAs with adult or embryonic hippocampal cultures were investigated. The activity of neuronal networks was recorded with 25 kHz using the software Axion's Integrated Studio (AxIS). Signal amplitudes 6 times larger than the standard deviation of the base line were detected as action-potential spikes. The spike data was then imported into Matlab 2010b (The MathWorks) for further processing.
Baseline spontaneous activity in adult and embryonic neurons was recorded for 3 minutes on 5 consecutive days per week, starting on 7 div. The synaptic antagonists D-(−)-2-Amino-5-phosphonopentanoic acid (D-APS, 25 μM, Tocris Bioscience, 0106), 6-Cyano-7-nitroquinoxaline-2,3-dione disodium (CNQX, 25 μM, Tocris Bioscience, 1045), and (−)-Bicuculline methobromide (Bicuculline, 50 μM, Tocris Bioscience, 0109) were separately administered to both adult and embryonic neurons on 14 div and at various time points between 30 and 60 div. […]

[2] = system: embryonic rat hippocampal neurons on MEAs; assay: MEA recording of spontaneous activity, embryonic hippocampal neurons; conditions: embryonic cultures
Protocol: Embryonic hippocampal neurons were cultured. Pregnant rats, 18 days in gestation, obtained from Charles River were euthanized with carbon dioxide and the fetuses were collected in ice-cold Hibernate E (BrainBits)/B27/Glutamaxtm/Antibiotic-antimycotic (Invitrogen) (Dissecting Medium). Each fetus was decapitated, and the whole brain was transferred to fresh ice cold dissecting medium. After isolation, the hippocampi were collected in a fresh tube of dissecting medium. The tissue was enzymatically digested at 37° C. for 10 minutes with papain (Worthington 3119), 12 mg/6 ml Hibernate-E (-calcium) (BrainBits)+0.5 mM Glutamax (Invitrogen). Hippocampal neurons were obtained by triturating the tissue using a fire-polished Pasteur pipette. After centrifugation, the cells were re-suspended in culture medium (Neurobasal/B27/Glutamaxtm/antibiotic-antimycotic) and plated on MEAs. All research was approved by the Institutional Animal Care and Use Committee at the University of Central Florida and conformed to NIH guidelines.
as §1, §2
Baseline spontaneous activity in adult and embryonic neurons was recorded for 3 minutes on 5 consecutive days per week, starting on 7 div. The synaptic antagonists D-(−)-2-Amino-5-phosphonopentanoic acid (D-APS, 25 μM, Tocris Bioscience, 0106), 6-Cyano-7-nitroquinoxaline-2,3-dione disodium (CNQX, 25 μM, Tocris Bioscience, 1045), and (−)-Bicuculline methobromide (Bicuculline, 50 μM, Tocris Bioscience, 0109) were separately administered to both adult and embryonic neurons on 14 div and at various time points between 30 and 60 div. Three minute recordings were made to quantify the effect from these antagonists on spontaneous activity. If necessary, additional baselines were recorded prior to the administration of antagonists. Each experiment was followed by a complete washout of the antagonist and replacement with fresh medium.
Data analysis was performed off-line using unpublished Matlab functions to evaluate spike files created during each MEA recording. […] In about 25% of the adult cultures and 14% of the embryonic cultures, portions of the neuronal networks detached from the substrate over time and especially after about 6 weeks. In order to accommodate the different numbers of active channels between MEAs, all values were corrected for the amount of active channels on an MEA. […]

[3] = system: adult rat hippocampal neurons; assay: Control of neuronal division in dissociated adult rat hippocampal neuron culture (cell population, neurite length, marker expression); conditions: for elimination of division of cultured neurons by mitotic inhibitors: added to culture medium on 2 DIV, FudR 10 and 50 μM; for neuronal division after addition to the culture medium: roscovitine added to the culture medium (at 3 div in MEA work)
Protocol: The hippocampi of adult rats (Charles River, age 6-12 months) were dissected and homogenized into small tissue fragments in cold medium (˜4° C.) consisting of Hibernate-A, Glutamax, and antibiotic-antimycotic. The tissue was then digested for 30 minutes at 37° C. in calcium-free Hibernate-A (HA) containing 6 mg papain/12 ml (HA). Following digestion, the tissue was washed three times with cold Hibernate-A media to remove any active enzyme. Next, the tissue was suspended in Dissociation Media (Table 1), formulated for dissociation of rat and mouse adult brain tissue into individual cells and dissociated into individual cells through mechanical dissociation with fire-polished Pasteur pipettes. The dissociated cells were suspended in Plating Media (Table 1), used after tissue dissociation to promote neuronal attachment and regeneration, and then deposited onto DETA-coated glass cover slips for 30-45 minutes. DETA, with its triamine functional group exposed at the surface, strongly attaches to neurons and allows for all non-neuronal debris such as ECM proteins, myelin debris, and cell fragments to be washed from the cover slip surface (D. A. Stenger et al., 1993; J. J. Hickman et al., 1994; M. Das et al., 2005; A. E. Schaffner et al., 1995). Following this washing step, fresh Plating medium was applied and remained for the first 3 DIV. On 3 DIV and every fourth subsequent day, one half of the medium was removed and replaced with Maintenance Media (FIG. 1, Table 1), supporting the long-term maintenance of these neurons. […] The osmolarity of the media was adjusted to match the osmolarity of adult rat cerebrospinal fluid (295-305 mOsm) (S. C. Baraban et al., 1997; R. A. Fishman and G. D. Silverberg, 2002). In the Dissociation Medium (Table 1), the use of caspase inhibitors and antioxidants (M. Das et al., 2007) during the dissociation of the tissue minimized both oxidative damage as well as the progression into apoptosis which normally results from cellular damage during this stage. […] For long-term survival, the anti-oxidants were removed from the Maintenance Medium (Table 1).
After neuronal confluence, 25 μM glutamate ((N-Acetyl-L-glutamic acid, Aldrich, 855642) triggers induction of neuronal electrical recovery (D. Edwards et al., 2010). Control of the division of neurons in this culture system was investigated experimentally as follows: (1) bFGF removal from both the Plating and Maintenance medium. (2) Fluorodeoxyuridine (FudR, Sigma-Aldrich, F-0503) addition at 10 and 50 μM (3) arabinoside-D (ara-C, Sigma, C-6645) plus deoxycytidine addition. (4) Trolox (Sigma, 238813) addition at 40 and 100 μM. (5) Aphidicolin (Aph, Sigma, A0781) addition at 1.5 μM. (6) Roscovitine (Rosc, Sigma, R7772) addition at 1, 5, and 10 μM. All factors were added before the onset of neuronal division (2 DIV), some after the onset of division (after 3 DIV).
To prepare cells for immunocytochemical characterization, cover slips were rinsed twice with Phosphate Buffered Saline (PBS). Cells were fixed with 4% paraformaldehyde for ten minutes at room temperature, and subsequently rinsed three times with PBS. Cells were permeabilized for five min in PBS with 5 mM Lysine and 0.5% Triton X-100, and were then blocked for two hours by adding 5% normal donkey serum. Anti-Neurofilament-M polyclonal antibody (Nf-M, intracellular filament found in mature neurons, Chemicon, AB 1981, diluted 1:1000), anti-NeuN (nuclear marker in mature neurons, Chemicon, diluted 1:1000), anti-Ki-67 (nuclear marker in dividing cells, Chemicon, diluted 1:1000), anti-NR2A (NMDA channel subunit expressed in the post-synaptic cell membrane, AB1548, diluted 1:75), anti-NR2B (NMDA channel subunit expressed in the post-synaptic cell membrane, MAB5216, diluted 1:150) were added in blocking solution for 12 hr at 4° C. After 3 washes with PBS, fluorescently labeled secondary antibodies (Invitrogen, A1011, A21449, and A11029) were applied for two hours. […]

N[C@H](CCCP(=O)(O)O)C(=O)O [D-AP5, D-(−)-2-Amino-5-phosphonopentanoic acid]
loss of channel activity (active channels) versus baseline ([1]; 25 μM antagonist, 14 div): 90±6% | lowering of action potential frequency versus baseline ([1]; 25 μM antagonist, 14 div): 76±8% | loss of channel activity (active channels) versus baseline ([1]; 25 μM antagonist, 30-60 div): 82±6% | lowering (drop) of action potential frequency versus baseline ([1]; 25 μM antagonist, 30-60 div): 82±17% | increase of firing rate versus baseline ([2]; 25 μM antagonist, 14 div): 90±6% | loss of channel activity (active channels) versus baseline ([2]; 25 μM antagonist, 14 div): 65±4% | decrease (drop) of firing rate versus baseline ([2]; 25 μM antagonist, 30-60 div): 70±7% | loss of channel activity (active channels) versus baseline ([2]; 25 μM antagonist, 30-60 div): 36±7%

bFGF: basic fibroblast growth factor (Invitrogen, 13256-029)
neuronal cell proliferation ([3]; bFGF 5 ng/ml in medium): triggered neuronal cell proliferation until confluence

O=c1[nH]c(=O)n([C@H]2C[C@H](O)[C@@H](CO)O2)cc1F [FudR, Fluorodeoxyuridine]
elimination of division of cultured neurons by mitotic inhibitors [3]: all dividing cells were forced into apoptosis

N#Cc1cc2c(cc1[N+](=O)[O-])=NC(=O)C(=O)N=2.[Na].[Na] [CNQX, 6-Cyano-7-nitroquinoxaline-2,3-dione disodium]
change in action potential frequency ([1]; 25 μM CNQX, 14 div): not affected | loss of channel activity (active channels) versus baseline ([1]; 25 μM antagonist, 14 div): 52±3% | loss of channel activity (active channels) versus baseline ([1]; 25 μM antagonist, 30-60 div): 24±5% | lowering (drop) of action potential frequency versus baseline ([1]; 25 μM antagonist, 30-60 div): 31±6% | change in action potential frequency ([2]; 25 μM CNQX, 14 div): not affected | loss of channel activity (active channels) versus baseline ([2]; 25 μM antagonist, 14 div): 23±5% | decrease (drop) of firing rate versus baseline ([2]; 25 μM antagonist, 30-60 div): 47±5% | loss of channel activity (active channels) versus baseline ([2]; 25 μM antagonist, 30-60 div): 0±7%

CC[C@H](CO)Nc1nc(NCc2ccccc2)c2ncn(C(C)C)c2n1 [roscovitine]
neuronal cell population ([3]; 1 μM roscovitine applied on day 2, bFGF in medium): the cell population increased more slowly than without roscovitine | extension of primary axons versus untreated control neurons ([3]; 5 μM roscovitine days 2-7, 2 μM after day 7, on average): 4-5 times longer | neuronal cell population ([3]; 5 μM roscovitine on days 2-7 in vitro and 2 μM after day 7): A stable population of neurons was achieved | neuronal cell population ([3]; 5 μM roscovitine on days 2-7 in vitro and 2 μM after day 7, listed as Rosc): stable in vitro | neuronal cell population ([3]; 10 μM roscovitine applied on day 2): caused a decrease in the neuronal population | neuronal cell population ([3]; 10 μM roscovitine introduced on day 7): a sharp loss of neurons | neuronal division after addition to the culture medium [3]: neurons no longer divided | neuronal division after addition to the culture medium ([3]; listed as Roscovitine): prevented neuronal mitotic activity | expression of neuronal and proliferation markers (MAP2, NeuN, Ki-67) ([3]; roscovitine treated, non-proliferating neurons, immunocytochemistry): expressed the mature neuronal markers MAP2 and NeuN, but lacked expression for the nuclear marker of proliferating cells, Ki-67

Nc1ccn([C@@H]2O[C@H](CO)[C@@H](O)[C@@H]2O)c(=O)n1 [ara-C, arabinoside-D]
elimination of division of cultured neurons by mitotic inhibitors [3]: all dividing cells were forced into apoptosis

Cc1c(C)c2c(c(C)c1O)CCC(C)(C(=O)O)O2 (centres unmarked) [Trolox]
prevention of return of primary neurons to the cell cycle ([3]; Trolox 40 and 100 μM, 2 DIV): not effective | neuronal survival (antioxidant activity) ([3]; Trolox in culture medium): improve neuronal survival

C[C@@]1(CO)[C@H](O)CC[C@@]2(C)[C@H]1CC[C@H]1C[C@@H]3C[C@@]12CC[C@]3(O)CO [aphidicolin, Aphidicolin]
regeneration of surviving neurons ([3]; aphidicolin 1.5 μM, 2 DIV): limited regeneration of neurites and functional electrical properties | survival of cultured neurons ([3]; aphidicolin 1.5 μM, 2 DIV): caused most cultured neurons to either necrose or apoptose
